# Laboratory results as given in US10681909B2, “Herbicidal triazoles” (FMC Corporation, priority 2014, dated 2020).
# Experiments:
# [1] = system: foxtail, giant; assay: Test A preemergence; type: in vivo, Setaria faberii; conditions: 0 to 100 scale (0 no effect, 100 complete control)
# In short: (§1)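 Test chemicals in a non-phytotoxic solvent with surfactant were applied as a directed soil spray preemergence to seeds sown in loam/sand. Postemergence sprays went to plants 2–10 cm tall at the one- to two-leaf stage. A dash means no result.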
# [2] = system: pigweed; assay: Test A preemergence; type: in vivo, Amaranthus retroflexus; conditions: 0 to 100 scale (0 no effect, 100 complete control)
# In short: as §1
# [3] = system: foxtail, giant; assay: Test A postemergence; type: in vivo, Setaria faberii; conditions: 0 to 100 scale (0 no effect, 100 complete control), approx. 10 d
# In short: as §1
# [4] = system: pigweed; assay: Test A postemergence; type: in vivo, Amaranthus retroflexus; conditions: 0 to 100 scale (0 no effect, 100 complete control), approx. 10 d
# In short: as §1
# [5] = system: ducksalad; assay: Test B flooded paddy test; type: in vivo, Heteranthera limosa; conditions: 250 g ai/ha, applied to paddy water at 2-leaf stage, visual rating after 13 to 15 d, scale 0 (no effect) to 100 (complete control)
# In short: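 Pots were flooded to 3 cm above the soil at treatment, and compounds were applied directly into the paddy water. That depth was held throughout. After 13 to 15 d in a greenhouse, plants were rated visually against untreated controls.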
# [6] = system: galium; assay: Test C postemergence; type: in vivo, Galium aparine
# Excerpt: (§2) Seeds of plant species selected from blackgrass (Alopecurus myosuroides), ryegrass, Italian (Italian ryegrass, Lolium multiflorum), wheat (winter wheat, Triticum aestivum), galium (catchweed bedstraw, Galium aparine), corn (Zea mays), crabgrass, large (large crabgrass, Digitaria sanguinalis), foxtail, giant, (giant foxtail, Setaria faberii), johnsongrass (Sorghum halepense), lambsquarters (Chenopodium album), morningglory (Ipomoea coccinea), nutsedge, yellow (yellow nutsedge, Cyperus esculentus), pigweed (Amaranthus retroflexus), ragweed (common ragweed, Ambrosia elatior), soybean (Glycine max), barnyardgrass (Echinochloa crus-galli), oilseed rape (Brassica napus), waterhemp (common waterhemp, Amaranthus rudis), and velvetleaf (Abutilon theophrasti) were planted into a blend of loam soil and sand and treated preemergence with test chemicals formulated in a non-phytotoxic solvent mixture which included a surfactant. At the same time, plants selected from these crop and weed species and also chickweed (common chickweed, Stellaria media), oat, wild (wild oat, Avena fatua), and kochia (Kochia scoparia), were planted in pots containing Sunshine Redi-Earth® planting medium comprising spaghnum peat moss, vermiculite, starter nutrients and dolomitic limestone and treated with postemergence applications of test chemicals formulated in the same manner. Plants ranged in height from 2 to 18 cm (1- to 4-leaf stage) for postemergence treatments. […] A dash (-) response means no test result.
# [7] = system: corn; assay: Test C postemergence; type: in vivo, Zea mays
# Excerpt: as §2
# [8] = system: crabgrass, large; assay: Test C postemergence; type: in vivo, Digitaria sanguinalis
# Excerpt: as §2
# [9] = system: johnsongrass; assay: Test C postemergence; type: in vivo, Sorghum halepense
# Excerpt: as §2
# [10] = system: ragweed; assay: Test C postemergence; type: in vivo, Ambrosia elatior
# Excerpt: as §2
# [11] = system: soybean; assay: Test C postemergence; type: in vivo, Glycine max
# Excerpt: as §2
# [12] = system: barnyardgrass; assay: Test C postemergence; type: in vivo, Echinochloa crus-galli
# Excerpt: as §2
# [13] = system: velvetleaf; assay: Test C postemergence; type: in vivo, Abutilon theophrasti
# Excerpt: as §2
smiles,measurement,setting,value
CCOc1nc(-c2ccc(Cl)cc2)nn1Cc1ccnc(C(F)(F)F)c1 [Compound 26],"Plant response rating, Foxtail, Giant",[1]; 31 g ai/ha,100
same,"Plant response rating, Foxtail, Giant",[1]; 125 g ai/ha,100
same,"Plant response rating, Pigweed",[2]; 31 g ai/ha,90
same,"Plant response rating, Pigweed",[2]; 125 g ai/ha,100
same,"Plant response rating, Foxtail, Giant",[3]; 31 g ai/ha,70
same,"Plant response rating, Foxtail, Giant",[3]; 125 g ai/ha,90
same,"Plant response rating, Pigweed",[4]; 31 g ai/ha,80
same,"Plant response rating, Pigweed",[4]; 125 g ai/ha,100
same,"Plant response rating, Ducksalad, Flood",[5],70
same,Plant response rating (scale of 0 to 100 where 0 is no effect and 100 is complete control),[6]; 16 g ai/ha,80
same,Plant response rating (scale of 0 to 100 where 0 is no effect and 100 is complete control),[6]; 31 g ai/ha,90
same,Plant response rating (scale of 0 to 100 where 0 is no effect and 100 is complete control),[6]; 62 g ai/ha,90
same,Plant response rating (scale of 0 to 100 where 0 is no effect and 100 is complete control),[6]; 125 g ai/ha,90
same,Plant response rating (scale of 0 to 100 where 0 is no effect and 100 is complete control),[7]; 16 g ai/ha,25
same,Plant response rating (scale of 0 to 100 where 0 is no effect and 100 is complete control),[7]; 31 g ai/ha,25
same,Plant response rating (scale of 0 to 100 where 0 is no effect and 100 is complete control),[7]; 62 g ai/ha,30
same,Plant response rating (scale of 0 to 100 where 0 is no effect and 100 is complete control),[7]; 125 g ai/ha,35
same,Plant response rating (scale of 0 to 100 where 0 is no effect and 100 is complete control),[8]; 16 g ai/ha,20
same,Plant response rating (scale of 0 to 100 where 0 is no effect and 100 is complete control),[8]; 31 g ai/ha,20
same,Plant response rating (scale of 0 to 100 where 0 is no effect and 100 is complete control),[8]; 62 g ai/ha,35
same,Plant response rating (scale of 0 to 100 where 0 is no effect and 100 is complete control),[8]; 125 g ai/ha,50
same,Plant response rating (scale of 0 to 100 where 0 is no effect and 100 is complete control),[9]; 16 g ai/ha,25
same,Plant response rating (scale of 0 to 100 where 0 is no effect and 100 is complete control),[9]; 31 g ai/ha,20
same,Plant response rating (scale of 0 to 100 where 0 is no effect and 100 is complete control),[9]; 62 g ai/ha,35
same,Plant response rating (scale of 0 to 100 where 0 is no effect and 100 is complete control),[9]; 125 g ai/ha,55
same,Plant response rating (scale of 0 to 100 where 0 is no effect and 100 is complete control),[10]; 16 g ai/ha,85
same,Plant response rating (scale of 0 to 100 where 0 is no effect and 100 is complete control),[10]; 31 g ai/ha,90
same,Plant response rating (scale of 0 to 100 where 0 is no effect and 100 is complete control),[10]; 62 g ai/ha,70
same,Plant response rating (scale of 0 to 100 where 0 is no effect and 100 is complete control),[10]; 125 g ai/ha,85
same,Plant response rating (scale of 0 to 100 where 0 is no effect and 100 is complete control),[11]; 16 g ai/ha,35
same,Plant response rating (scale of 0 to 100 where 0 is no effect and 100 is complete control),[11]; 31 g ai/ha,70
same,Plant response rating (scale of 0 to 100 where 0 is no effect and 100 is complete control),[11]; 62 g ai/ha,65
same,Plant response rating (scale of 0 to 100 where 0 is no effect and 100 is complete control),[11]; 125 g ai/ha,70
same,Plant response rating (scale of 0 to 100 where 0 is no effect and 100 is complete control),[12]; 16 g ai/ha,25
same,Plant response rating (scale of 0 to 100 where 0 is no effect and 100 is complete control),[12]; 31 g ai/ha,30
same,Plant response rating (scale of 0 to 100 where 0 is no effect and 100 is complete control),[12]; 62 g ai/ha,45
same,Plant response rating (scale of 0 to 100 where 0 is no effect and 100 is complete control),[12]; 125 g ai/ha,55
same,Plant response rating (scale of 0 to 100 where 0 is no effect and 100 is complete control),[13]; 16 g ai/ha,60
same,Plant response rating (scale of 0 to 100 where 0 is no effect and 100 is complete control),[13]; 31 g ai/ha,60
same,Plant response rating (scale of 0 to 100 where 0 is no effect and 100 is complete control),[13]; 62 g ai/ha,65
same,Plant response rating (scale of 0 to 100 where 0 is no effect and 100 is complete control),[13]; 125 g ai/ha,70
COc1nc(-c2ccc(C(F)(F)F)cc2)nn1Cc1ccnc(C(F)(F)F)c1 [Compound 25],"Plant response rating, Foxtail, Giant",[1]; 31 g ai/ha,70
same,"Plant response rating, Foxtail, Giant",[1]; 125 g ai/ha,100
same,"Plant response rating, Pigweed",[2]; 31 g ai/ha,90
same,"Plant response rating, Pigweed",[2]; 125 g ai/ha,100
same,"Plant response rating, Foxtail, Giant",[3]; 31 g ai/ha,50
same,"Plant response rating, Foxtail, Giant",[3]; 125 g ai/ha,90
same,"Plant response rating, Pigweed",[4]; 31 g ai/ha,90
same,"Plant response rating, Pigweed",[4]; 125 g ai/ha,100
same,"Plant response rating, Ducksalad, Flood",[5],20
same,Plant response rating (scale of 0 to 100 where 0 is no effect and 100 is complete control),[6]; 31 g ai/ha,80
same,Plant response rating (scale of 0 to 100 where 0 is no effect and 100 is complete control),[6]; 62 g ai/ha,90
same,Plant response rating (scale of 0 to 100 where 0 is no effect and 100 is complete control),[6]; 125 g ai/ha,90
same,Plant response rating (scale of 0 to 100 where 0 is no effect and 100 is complete control),[6]; 250 g ai/ha,90
same,Plant response rating (scale of 0 to 100 where 0 is no effect and 100 is complete control),[7]; 31 g ai/ha,20
same,Plant response rating (scale of 0 to 100 where 0 is no effect and 100 is complete control),[7]; 62 g ai/ha,20
same,Plant response rating (scale of 0 to 100 where 0 is no effect and 100 is complete control),[7]; 125 g ai/ha,25
same,Plant response rating (scale of 0 to 100 where 0 is no effect and 100 is complete control),[7]; 250 g ai/ha,25
same,Plant response rating (scale of 0 to 100 where 0 is no effect and 100 is complete control),[8]; 31 g ai/ha,15
same,Plant response rating (scale of 0 to 100 where 0 is no effect and 100 is complete control),[8]; 62 g ai/ha,20
same,Plant response rating (scale of 0 to 100 where 0 is no effect and 100 is complete control),[8]; 125 g ai/ha,30
same,Plant response rating (scale of 0 to 100 where 0 is no effect and 100 is complete control),[8]; 250 g ai/ha,45
same,Plant response rating (scale of 0 to 100 where 0 is no effect and 100 is complete control),[9]; 31 g ai/ha,10
same,Plant response rating (scale of 0 to 100 where 0 is no effect and 100 is complete control),[9]; 62 g ai/ha,20
same,Plant response rating (scale of 0 to 100 where 0 is no effect and 100 is complete control),[9]; 125 g ai/ha,20
same,Plant response rating (scale of 0 to 100 where 0 is no effect and 100 is complete control),[9]; 250 g ai/ha,30
same,Plant response rating (scale of 0 to 100 where 0 is no effect and 100 is complete control),[10]; 31 g ai/ha,65
same,Plant response rating (scale of 0 to 100 where 0 is no effect and 100 is complete control),[10]; 62 g ai/ha,80
same,Plant response rating (scale of 0 to 100 where 0 is no effect and 100 is complete control),[10]; 125 g ai/ha,75
same,Plant response rating (scale of 0 to 100 where 0 is no effect and 100 is complete control),[10]; 250 g ai/ha,85
same,Plant response rating (scale of 0 to 100 where 0 is no effect and 100 is complete control),[11]; 31 g ai/ha,45
same,Plant response rating (scale of 0 to 100 where 0 is no effect and 100 is complete control),[11]; 62 g ai/ha,70
same,Plant response rating (scale of 0 to 100 where 0 is no effect and 100 is complete control),[11]; 125 g ai/ha,50
same,Plant response rating (scale of 0 to 100 where 0 is no effect and 100 is complete control),[11]; 250 g ai/ha,65
same,Plant response rating (scale of 0 to 100 where 0 is no effect and 100 is complete control),[12]; 31 g ai/ha,20
same,Plant response rating (scale of 0 to 100 where 0 is no effect and 100 is complete control),[12]; 62 g ai/ha,25
same,Plant response rating (scale of 0 to 100 where 0 is no effect and 100 is complete control),[12]; 125 g ai/ha,35
same,Plant response rating (scale of 0 to 100 where 0 is no effect and 100 is complete control),[12]; 250 g ai/ha,35
same,Plant response rating (scale of 0 to 100 where 0 is no effect and 100 is complete control),[13]; 31 g ai/ha,35
same,Plant response rating (scale of 0 to 100 where 0 is no effect and 100 is complete control),[13]; 62 g ai/ha,50
same,Plant response rating (scale of 0 to 100 where 0 is no effect and 100 is complete control),[13]; 125 g ai/ha,70
same,Plant response rating (scale of 0 to 100 where 0 is no effect and 100 is complete control),[13]; 250 g ai/ha,75
